# Measurements published in PubChem BioAssay AID1259407 (Chemical Carcinogenesis Research Information System (CCRIS), 2018).
# Calls of active or inactive are those of the source. No rule for the calls is given here.
# Test system: CCRIS mutagenicity, Ames/micronucleus/aberration tests
# Experiment: CCRIS mutagenicity studies
# [1] = Test System: AMES SALMONELLA TYPHIMURIUM, Strain/Indicator: TA98, Metabolic Activation: NONE, Method: STANDARD PLATE
# [2] = Test System: AMES SALMONELLA TYPHIMURIUM, Strain/Indicator: TA100, Metabolic Activation: NONE, Method: STANDARD PLATE
smiles,measurement,setting,value
Cc1cccc(C)c1C,mutagenic call,"Test System: AMES SALMONELLA TYPHIMURIUM, Strain/Indicator: TA97A, Metabolic Activation: NONE, Method: STANDARD PLATE",active; positive
same,mutagenic call,"Test System: AMES SALMONELLA TYPHIMURIUM, Strain/Indicator: TA97A, Metabolic Activation: RAT, LIVER, S-9, AROCLOR 1254, Method: STANDARD PLATE",inactive; negative
same,mutagenic call,[1],active; positive
same,mutagenic call,"Test System: AMES SALMONELLA TYPHIMURIUM, Strain/Indicator: TA98, Metabolic Activation: RAT, LIVER, S-9, AROCLOR 1254, Method: STANDARD PLATE",inactive; negative
same,mutagenic call,[2],active; positive
same,mutagenic call,"Test System: AMES SALMONELLA TYPHIMURIUM, Strain/Indicator: TA100, Metabolic Activation: RAT, LIVER, S-9, AROCLOR 1254, Method: STANDARD PLATE",inactive; negative
same,mutagenic call,"Test System: AMES SALMONELLA TYPHIMURIUM, Strain/Indicator: TA102, Metabolic Activation: NONE, Method: STANDARD PLATE",active; positive
same,mutagenic call,"Test System: AMES SALMONELLA TYPHIMURIUM, Strain/Indicator: TA102, Metabolic Activation: RAT, LIVER, S-9, AROCLOR 1254, Method: STANDARD PLATE",inactive; negative
CCO[Si](C)(C)OCC,mutagenic call,[1],inactive; negative
same,mutagenic call,"Test System: AMES SALMONELLA TYPHIMURIUM, Strain/Indicator: TA98, Metabolic Activation: RAT LIVER S-9, AROCLOR 1254, Method: STANDARD PLATE",inactive; negative
same,mutagenic call,[2],inactive; negative
same,mutagenic call,"Test System: AMES SALMONELLA TYPHIMURIUM, Strain/Indicator: TA100, Metabolic Activation: RAT LIVER S-9, AROCLOR 1254, Method: STANDARD PLATE",inactive; negative
same,mutagenic call,"Test System: AMES SALMONELLA TYPHIMURIUM, Strain/Indicator: TA1535, Metabolic Activation: NONE, Method: STANDARD PLATE",inactive; negative
same,mutagenic call,"Test System: AMES SALMONELLA TYPHIMURIUM, Strain/Indicator: TA1535, Metabolic Activation: RAT LIVER S-9, AROCLOR 1254, Method: STANDARD PLATE",inactive; negative
same,mutagenic call,"Test System: AMES SALMONELLA TYPHIMURIUM, Strain/Indicator: TA1537, Metabolic Activation: NONE, Method: STANDARD PLATE",inactive; negative
same,mutagenic call,"Test System: AMES SALMONELLA TYPHIMURIUM, Strain/Indicator: TA1537, Metabolic Activation: RAT LIVER S-9, AROCLOR 1254, Method: STANDARD PLATE",inactive; negative
same,mutagenic call,"Test System: AMES SALMONELLA TYPHIMURIUM, Strain/Indicator: TA1538, Metabolic Activation: NONE, Method: STANDARD PLATE",inactive; negative
same,mutagenic call,"Test System: AMES SALMONELLA TYPHIMURIUM, Strain/Indicator: TA1538, Metabolic Activation: RAT LIVER S-9, AROCLOR 1254, Method: STANDARD PLATE",inactive; negative
same,mutagenic call,"Test System: E. COLI, Strain/Indicator: P3078 POLA, Metabolic Activation: NONE, Method: SPOT TEST",inactive; negative
same,mutagenic call,"Test System: E. COLI, Strain/Indicator: P3078 POLA, Metabolic Activation: RAT LIVER S-9, AROCLOR 1254, Method: SPOT TEST",inactive; negative
same,mutagenic call,"Test System: E. COLI, Strain/Indicator: W3110, Metabolic Activation: NONE, Method: SPOT TEST",inactive; negative
same,mutagenic call,"Test System: E. COLI, Strain/Indicator: W3110, Metabolic Activation: RAT LIVER S-9, AROCLOR 1254, Method: SPOT TEST",inactive; negative
same,mutagenic call,"Test System: MOUSE LYMPHOMA, Strain/Indicator: L5178Y (TK+/TK-), Metabolic Activation: NONE, Method: SUSPENSION/PLATE",inactive; negative
same,mutagenic call,"Test System: MOUSE LYMPHOMA, Strain/Indicator: L5178Y (TK+/TK-), Metabolic Activation: RAT, LIVER, S-9, Method: SUSPENSION/PLATE",inactive; negative
O=C1CCCO1,mutagenic call,"End Point: IN VITRO CHROMOSOMAL ABERRATIONS, Test System: CHO CELLS, Metabolic Activation: NONE",inactive; negative
same,mutagenic call,"End Point: IN VITRO CHROMOSOMAL ABERRATIONS, Test System: CHO CELLS, Metabolic Activation: RAT, LIVER, S-9, AROCLOR 1254",active; positive
same,mutagenic call,"Test System: AMES SALMONELLA TYPHIMURIUM, Strain/Indicator: TA98, Metabolic Activation: HAMSTER, LIVER, S-9, AROCLOR 1254 (10%), Method: PREINCUBATION",inactive; negative
same,mutagenic call,"Test System: AMES SALMONELLA TYPHIMURIUM, Strain/Indicator: TA98, Metabolic Activation: NONE, Method: PREINCUBATION",inactive; negative
same,mutagenic call,"Test System: AMES SALMONELLA TYPHIMURIUM, Strain/Indicator: TA98, Metabolic Activation: RAT LIVER S-9, PHENOBARBITAL AND BETA-NAPHTHOFLAVONE, Method: PREINCUBATION",inactive; negative
same,mutagenic call,"Test System: AMES SALMONELLA TYPHIMURIUM, Strain/Indicator: TA98, Metabolic Activation: RAT, LIVER, S-9, AROCLOR 1254 (10%), Method: PREINCUBATION",inactive; negative
same,mutagenic call,"Test System: AMES SALMONELLA TYPHIMURIUM, Strain/Indicator: TA98, Metabolic Activation: RAT, LIVER, S-9, AROCLOR 1254, Method: PREINCUBATION",inactive; negative
same,mutagenic call,"Test System: AMES SALMONELLA TYPHIMURIUM, Strain/Indicator: TA100, Metabolic Activation: HAMSTER, LIVER, S-9, AROCLOR 1254 (10%), Method: PREINCUBATION",inactive; negative
same,mutagenic call,"Test System: AMES SALMONELLA TYPHIMURIUM, Strain/Indicator: TA100, Metabolic Activation: NONE, Method: PREINCUBATION",inactive; negative
same,mutagenic call,"Test System: AMES SALMONELLA TYPHIMURIUM, Strain/Indicator: TA100, Metabolic Activation: RAT LIVER S-9, PHENOBARBITAL AND BETA-NAPHTHOFLAVONE, Method: PREINCUBATION",inactive; negative
same,mutagenic call,"Test System: AMES SALMONELLA TYPHIMURIUM, Strain/Indicator: TA100, Metabolic Activation: RAT, LIVER, S-9, AROCLOR 1254 (10%), Method: PREINCUBATION",inactive; negative
same,mutagenic call,"Test System: AMES SALMONELLA TYPHIMURIUM, Strain/Indicator: TA100, Metabolic Activation: RAT, LIVER, S-9, AROCLOR 1254, Method: PREINCUBATION",inactive; negative
same,mutagenic call,"Test System: AMES SALMONELLA TYPHIMURIUM, Strain/Indicator: TA102, Metabolic Activation: NONE, Method: PREINCUBATION",inactive; negative
same,mutagenic call,"Test System: AMES SALMONELLA TYPHIMURIUM, Strain/Indicator: TA102, Metabolic Activation: RAT LIVER S-9, PHENOBARBITAL AND BETA-NAPHTHOFLAVONE, Method: PREINCUBATION",inactive; negative
same,mutagenic call,"Test System: AMES SALMONELLA TYPHIMURIUM, Strain/Indicator: TA102, Metabolic Activation: RAT, LIVER, S-9, AROCLOR 1254, Method: PREINCUBATION",inactive; negative
same,mutagenic call,"Test System: AMES SALMONELLA TYPHIMURIUM, Strain/Indicator: TA104, Metabolic Activation: NONE, Method: PREINCUBATION",inactive; negative
same,mutagenic call,"Test System: AMES SALMONELLA TYPHIMURIUM, Strain/Indicator: TA104, Metabolic Activation: RAT LIVER S-9, PHENOBARBITAL AND BETA-NAPHTHOFLAVONE, Method: PREINCUBATION",inactive; negative
same,mutagenic call,"Test System: AMES SALMONELLA TYPHIMURIUM, Strain/Indicator: TA1535, Metabolic Activation: HAMSTER, LIVER, S-9, AROCLOR 1254 (10%), Method: PREINCUBATION",inactive; negative
same,mutagenic call,"Test System: AMES SALMONELLA TYPHIMURIUM, Strain/Indicator: TA1535, Metabolic Activation: NONE, Method: PREINCUBATION",inactive; negative
same,mutagenic call,"Test System: AMES SALMONELLA TYPHIMURIUM, Strain/Indicator: TA1535, Metabolic Activation: RAT LIVER S-9, PHENOBARBITAL AND BETA-NAPHTHOFLAVONE, Method: PREINCUBATION",inactive; negative
same,mutagenic call,"Test System: AMES SALMONELLA TYPHIMURIUM, Strain/Indicator: TA1535, Metabolic Activation: RAT, LIVER, S-9, AROCLOR 1254 (10%), Method: PREINCUBATION",inactive; negative
same,mutagenic call,"Test System: AMES SALMONELLA TYPHIMURIUM, Strain/Indicator: TA1537, Metabolic Activation: HAMSTER, LIVER, S-9, AROCLOR 1254 (10%), Method: PREINCUBATION",inactive; negative
same,mutagenic call,"Test System: AMES SALMONELLA TYPHIMURIUM, Strain/Indicator: TA1537, Metabolic Activation: NONE, Method: PREINCUBATION",inactive; negative
same,mutagenic call,"Test System: AMES SALMONELLA TYPHIMURIUM, Strain/Indicator: TA1537, Metabolic Activation: RAT LIVER S-9, PHENOBARBITAL AND BETA-NAPHTHOFLAVONE, Method: PREINCUBATION",inactive; negative
same,mutagenic call,"Test System: AMES SALMONELLA TYPHIMURIUM, Strain/Indicator: TA1537, Metabolic Activation: RAT, LIVER, S-9, AROCLOR 1254 (10%), Method: PREINCUBATION",inactive; negative
same,mutagenic call,"Test System: E.COLI, Strain/Indicator: WP2UVRA, Metabolic Activation: NONE, Method: PREINCUBATION",inactive; negative
same,mutagenic call,"Test System: E.COLI, Strain/Indicator: WP2UVRA, Metabolic Activation: RAT LIVER S-9, PHENOBARBITAL AND BETA-NAPHTHOFLAVONE, Method: PREINCUBATION",inactive; negative
same,mutagenic call,"Test System: E.COLI, Strain/Indicator: WP2UVRA\PKM101, Metabolic Activation: NONE, Method: PREINCUBATION",inactive; negative
same,mutagenic call,"Test System: E.COLI, Strain/Indicator: WP2UVRA\PKM101, Metabolic Activation: RAT LIVER S-9, PHENOBARBITAL AND BETA-NAPHTHOFLAVONE, Method: PREINCUBATION",inactive; negative
Nc1c(F)cc(-c2cc(F)c(N)c(F)c2)cc1F,mutagenic call,"Test System: UDS HUMAN CELLS, Strain/Indicator: THY INCORP (NON-S-PHASE), Metabolic Activation: RAT, LIVER, S-9, PHENOBARBITAL, Method: LIQUID SCINTILLATION COUNTING",active; positive
